In ChEMBL document CHEMBL1124765, “Synthesis and biological properties of novel phosphotriesters: a new approach to the introduction of biologically active nucleotides into cells” (J Med Chem, 1990) one finds pKa data, which are given here for two compounds.

This data set is described as follows: pKa value was determined. It counts as physicochemical.

On to `CC(=O)O[C@H]1C[C@H](n2cc(C)c(=O)[nH]c2=O)O[C@@H]1COP(=O)(OC[C@H]1O[C@@H](n2cc(C)c(=O)[nH]c2=O)C[C@@H]1OC(C)=O)Oc1ccccc1Cl`, for which the pKa stood at 8.48. In the case of `CC(=O)O[C@H]1C[C@H](n2cc(C)c(=O)[nH]c2=O)O[C@@H]1COP(=O)(OC[C@H]1O[C@@H](n2cc(C)c(=O)[nH]c2=O)C[C@@H]1OC(C)=O)Oc1ccc([N+](=O)[O-])cc1` it was 7.16.

A word on the pKa: it is the negative logarithm of the acid dissociation constant.
